Data from PMC8474119, “Discovery and SAR Evolution of Pyrazole Azabicyclo[3.2.1]octane Sulfonamides as a Novel Class of Non-Covalent N-Acylethanolamine-Hydrolyzing Acid Amidase (NAAA) Inhibitors for Oral Administration” (Journal of Medicinal Chemistry, 2021).

Experiments:
[1] = Plasma stability assay, mouse plasma; assay type: in vitro ADME; conditions: for % compound remaining at last time-point, plasma: 2.0 μM, 120 min; for half-life at 2 μM: n ≥ 3, read-out: plasma t1/2
Experimental: (§1) 10 mM DMSO stock solution of test compound (39 or 50) was diluted 50-fold with DMSO/H2O (1:1) and incubated at 37 °C for 2 h with mouse or rat plasma added with 5% DMSO (preheated at 37 °C for 10 min). The final compound’s concentration was 2.0 μM. At each time point (0, 5, 15, 30, 60, and 120 min), 50 μL of incubation mixture was diluted with 150 μL cold CH3CN spiked with 200 nM of warfarin, as the internal standard, followed by centrifugation at 3.270g for 20 min. The supernatant was further diluted with H2O (1:1) and analyzed by LC–MS/MS on a Waters ACQUITY UPLC-MS TQD system consisting of a triple quadrupole detector (TQD) mass spectrometer equipped with an electrospray ionization interface and a photodiode array eλ detector (PDA) from Waters Inc. (Milford, MA, USA). Electrospray ionization was applied in positive mode. Compound-dependent parameters as MRM transitions and collision energy were developed for each compound. The analyses were run on an ACQUITY UPLC BEH C18 (50 × 2.1 mm ID, particle size 1.7 μm) with a VanGuard BEH C18 precolumn (5 × 2.1 mm ID, particle size 1.7 μm) at 40 °C, using H2O + 0.1% HCOOH (A) and CH3CN + 0.1% HCOOH (B) as the mobile phase. The percentage of the test compound remaining at each time point relative to t = 0 was calculated by the response factor on the basis of the internal standard peak area. The percentage of test compound versus time was plotted and fitted by GraphPad Prism (GraphPad Software, Version 5 for Windows, CA, USA, www.graphpad.com) to estimate the compound’s half-life (t1/2), which was reported as mean value along with the standard deviation (n = 3).

[2] = Plasma stability assay, rat plasma; assay type: in vitro ADME; conditions: for % compound remaining at last time-point, plasma: 2.0 μM, 120 min; for half-life at 2 μM: n ≥ 3, read-out: plasma t1/2
Experimental: as §1

[3] = Liver microsomal stability assay (NADPH), human; assay type: in vitro ADME; conditions: for % compound remaining at last time-point, LM_NADPH: human liver microsomes, 4.6 μM, 60 min; for half-life at 4.6 μM: male, pH 7.5, human liver microsomes, read-out: LM_NADPH t1/2
Experimental: Pooled CD1 mouse (M1000, male), IGS Sprague-Dawley rat (R1000, male), and human (H1000, male) liver microsomes were purchased from SEKISUI XenoTech. 10 mM DMSO stock solution of the test compound (39 or 50) was preincubated at 37 °C for 15 min with mouse, rat, or human liver microsomes in 0.1 M Tris-HCl buffer (pH 7.5) with 10% DMSO. The final concentration was 4.6 μM. After preincubation, the cofactor (NADPH) was added to the incubation mixture, and the incubation was continued at 37 °C for 1 h. At each time point (0, 5, 15, 30, and 60 min), 30 μL of incubation mixture was diluted with 200 μL cold CH3CN spiked with 200 nM of an appropriate internal standard, followed by centrifugation at 3.270g for 15 min. The supernatant was further diluted with H2O (1:1) for analysis. A reference incubation mixture of each specie (microsomes without cofactors) was prepared for each test compound and analyzed at t = 0 and 60 min in order to verify the compound stability in the matrix. The two time points were diluted as for the time points of the incubation mixture above. The supernatants were analyzed by LC–MS/MS on a Waters ACQUITY UPLC-MS TQD system consisting of a triple quadrupole detector (TQD) mass spectrometer equipped with an electrospray ionization interface and a photodiode array eλ detector (PDA) from Waters Inc. (Milford, MA, USA). Electrospray ionization was applied in positive mode. Compound-dependent parameters as MRM transitions and collision energy were developed for each compound. The analyses were run on an ACQUITY UPLC BEH C18 (50 × 2.1 mm ID, particle size 1.7 μm) with a VanGuard BEH C18 precolumn (5 × 2.1 mm ID, particle size 1.7 μm) at 40 °C, using H2O + 0.1% HCOOH (A) and CH3CN + 0.1% HCOOH (B) as the mobile phase. The percentage of test compound remaining at each time point relative to t = 0 was calculated by the response factor on the basis of the internal standard peak area. The percentage of test compound versus time was plotted and fitted by GraphPad Prism (GraphPad Software, Version 5 for Windows, CA, USA, www.graphpad.com) to estimate the compound’s half-life (t1/2), which was reported as mean value along with the standard deviation (n = 3).

h-NAAA = biological target: T1, h-NAAA (Homo sapiens, UniProt Q02083); assay: Competitive activity-based protein profiling (ABPP) with probe ARN14686; assay type: binding
T1 construct: made in house; host or cells: HEK-293 cells stably overexpressing human NAAA; enzyme-enriched (lysosomal) lysate
T1 sequence (Q02083 29-125 limits assumed): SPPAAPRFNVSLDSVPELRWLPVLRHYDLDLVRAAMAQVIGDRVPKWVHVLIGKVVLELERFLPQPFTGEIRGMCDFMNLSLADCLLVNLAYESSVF
T1 sequence (Q02083 126-359 limits assumed): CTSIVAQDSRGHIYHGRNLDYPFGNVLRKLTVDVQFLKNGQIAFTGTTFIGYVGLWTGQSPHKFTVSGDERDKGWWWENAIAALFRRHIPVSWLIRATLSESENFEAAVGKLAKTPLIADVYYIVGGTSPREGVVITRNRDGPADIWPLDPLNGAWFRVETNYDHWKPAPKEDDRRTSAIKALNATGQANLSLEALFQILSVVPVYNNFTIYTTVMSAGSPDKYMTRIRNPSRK
Experimental: At the end of this preincubation time, the activity-based probe undec-10-ynyl-N-[(S)-2-oxoazetidin-3-yl]carbamate (ARN14686, see Figure S1, Supporting Information)[45] was added at 20 μM for 15 min or for 4 h at 37 °C. Next, click chemistry reaction was performed by adding the following reagents at the indicated final concentrations: 100 μM azide-PEG3-alexa fluor 545 (CLK-AZ109, Jena Bioscience), 1.0 mM tris(2-carboxyethyl)phosphine (TCEP) hydrochloride, 100 μM tris-[(1-benzyl-1H-1,2,3-triazol-4-yl)methyl]amine (TBTA), and 1 mM CuSO4·5H2O.[62] TBTA was first dissolved in DMSO at 83.5 mM and then diluted with four volumes of tert-butanol. The reaction was mixed by vortexing and incubated 2 h at 25 °C. Samples (10 μL) were analyzed by SDS-PAGE, and gel fluorescence was scanned at 532 nm wavelength (ChemidDoc MP, BIO-RAD).

SMILES | % compound remaining at last time-point, plasma [1] [%] | half-life at 2 μM [1] [h] | % compound remaining at last time-point, plasma [2] [%] | half-life at 2 μM [2] [h] | % compound remaining at last time-point, LM_NADPH [3] [%] | half-life at 4.6 μM [3] [h] | effect on h-NAAA labeling by ABP ARN14686, 15 min probe incubation (h-NAAA; 20 μM, lysosomal extracts of h-NAAA overexpressing HEK-293 cells, probe 15 min) | effect on h-NAAA labeling by ABP ARN14686, 4 h probe incubation (h-NAAA; 20 μM, lysosomal extracts of h-NAAA overexpressing HEK-293 cells, probe 4 h) | mode of interaction with h-NAAA (h-NAAA; competitive ABPP)
CCCCc1ccc(O[C@H]2C[C@H]3CC[C@@H](C2)N3S(=O)(=O)c2c(C)n[nH]c2C)cc1 [Compound 39, (1R,3r,5S)-3-(4-Butylphenoxy)-8-((3,5-dimethyl-1H-pyrazol-4-yl)sulfonyl)-8-azabicyclo[3.2.1]octane] | 93 | > 2 | 93 | > 2 | 83 | > 1 | – | – | –
CCOCc1cnc(O[C@H]2C[C@H]3CC[C@@H](C2)N3S(=O)(=O)c2c(C)n[nH]c2C)cn1 [Compound 50, (1R,3r,5S)-8-((3,5-Dimethyl-1H-pyrazol-4-yl)sulfonyl)-3-((5-(ethoxymethyl)pyrazin-2-yl)oxy)-8-azabicyclo[3.2.1]octane] | 95 | > 2 | 93 | > 2 | 88 | > 1 | prevented the binding | almost totally reverted | non-covalent interaction with h-NAAA
